Laboratory results from patent publication US7132547B2, “Preventives/remedies for urinary disturbance” (priority 2001, dated 2006).

Columns and labels:
[1] = target: T1, human adrenaline α1A receptor (Homo sapiens, UniProt P35348); assay: Measurement of α1A receptor binding inhibitory activity ([3H]-Prazosin binding to CHO-K1 membrane fraction); conditions: concentration reducing [3H]-Prazosin (2.5 nM) binding to the membrane fraction to 50%
T1 construct: expressed in transfected cells; membrane fraction
T1 sequence (P35348 1-466): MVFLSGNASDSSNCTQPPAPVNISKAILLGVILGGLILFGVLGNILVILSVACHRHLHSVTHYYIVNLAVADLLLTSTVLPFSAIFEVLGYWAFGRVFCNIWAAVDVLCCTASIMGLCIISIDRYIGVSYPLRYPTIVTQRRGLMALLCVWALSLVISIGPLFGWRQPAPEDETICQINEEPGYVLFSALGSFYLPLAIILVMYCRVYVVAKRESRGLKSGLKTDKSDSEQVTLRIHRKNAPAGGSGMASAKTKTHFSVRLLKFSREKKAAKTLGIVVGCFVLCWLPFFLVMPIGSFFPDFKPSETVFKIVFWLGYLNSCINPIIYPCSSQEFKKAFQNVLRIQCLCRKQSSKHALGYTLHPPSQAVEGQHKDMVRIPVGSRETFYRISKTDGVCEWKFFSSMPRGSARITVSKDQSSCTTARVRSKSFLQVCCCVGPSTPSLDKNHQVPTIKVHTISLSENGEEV
Protocol: b) Measurement of α1A Receptor Binding Inhibitory Activity
The following gene manipulation method was carried out according to the method described in a textbook (Miniatis et al., Molecular Cloning, Cold Spring Harbor Laboratory, 1989) or the method described in protocol attached to a reagent.
(i) Preparation of Expression Plasmid for Human Adrenaline α1A Receptor
An adrenaline α1A receptor gene was cloned from a human liver cDNA by a PCR method. A PCR reaction was performed with Gene Amp PCR System 9700 (Applied Biosystems) using 200 ng of a human liver cDNA library (TAKARA SHUZO Co., Ltd.) as a template and using TaKaRa Pyrobest DNA Polymerase (TAKARA SHUZO CO., Ltd) and adding each 50 pmol of a primer set 5′-[…]-3′ [SEQ ID No.: 1] and 5′-[…]-3[SEQ ID No.: 2] prepared making reference to a nucleotide sequence of an adrenaline α1A receptor gene which was reported by Hirasawa A. et al. (Biochem. Biophys. Res. Commun., 195, 902–909(1993)) (reaction condition: 45 cycles of 15 seconds at 94° C., and 3 minutes 30 seconds at 68° C.).
The obtained PCR fragment was digested with restriction enzymes Eco RI (TAKARA SHUZO Co. Ltd.) and Sal I. (TAKARA SHUZO Co. Ltd.), and agarose gel electrophoresis was performed to recover DNA fragments. The DNA fragments were mixed with an animal cell expression plasmid pMSR αneo (Administration No. A99–0013) which had been digested with Eco RI and Sal I, ligated with DNA Ligation Kit Ver. 2 (TAKARA SHUZO Co. Ltd.), and a competent cell of Esherichia coli JM109 was transformed to obtain a plasmid pMSR αneoA dreα1A.
(ii) Introduction of Plasmid for Expression of Human Adrenaline α1A Receptor into CHO-K1 Cell and Preparation of Membrane Fraction
CHO-K1 cells which had been subcultured in a 150 cm^2 culturing flask (Corning Coaster) using Ham F12 medium (Invitrogen) containing 10% fetal bovine serum (TRACE SCIENTIFIC) was peeled with 0.5 g/L trypsin-0.2 g/L EDTA(Invitrogen), cells were washed with D-PBS(−) (Invitrogen), centrifuged (1000 rpm, 5 min.), and suspended in D-PBS(−). […]

Hartley male guinea pigs = assay: Effect on blood pressure in anesthetized guinea pigs; assay type: in vivo, guinea pig; conditions: tamsulosin 0.01 mg/kg, Example 20 0.1 mg/kg
Protocol: Hartley male guinea pigs (Slc) weighing 300 to 350 g was anesthetized with urethane (1.2 g/kg), and retained, a cervical region was incised to expose a left common carotid artery. A polyethylene tube filled with physiological saline containing heparin (10 U.I./ml) was inserted into an artery, and blood pressure was measured with a pressure transducer. A cannulae for administering test compound was inserted into a vein at an end of left hind leg, and a test compound dissolved in distilled water was administered therethrough at 0.5 mL/kg. The blood pressure was recorded at 20 Hz using an analogue data inputting apparatus (MP-100, BIOPAC Systems), and analyzed by analyzing software (AcqKnowledge 3.5.3, BIOPAC Systems). Example compound and tamsulosin were studied for a dose at which effects were recognized in the aforementioned test a (Pressure Flow Study), and an average blood pressure just before administration of test compound and an average blood pressure 15 minutes after administration were measured. Data were statistically treated by Paired t-test.

COc1ccccc1CCNCCCCCC(=O)c1cc2c3c(c1)CCN3C(=O)CC2.Cl [Example 20, 8-(6-[[2-(2-Methoxyphenyl)ethyl]amino]hexanoyl]-1,2,5,6-tetrahydro-4H-pyrrolo[3,2,1-ij]quinolin-4-one hydrochloride]
IC50 [1]: 165 nM | Blood pressure, after administration (Hartley male guinea pigs; average blood pressure 15 minutes after i.v. administration): 54.6 ± 2.8 mmHg | Blood pressure, before administration (Hartley male guinea pigs; average blood pressure just before i.v. administration): 53.5 ± 3.6 mmHg
